For one experiment, the system named is NCI-H157. The experiment can be described thus: Cytotoxicity against human NCI-H157 cells assessed as reduction in cell viability after 48 hrs by SRB assay. The experiment is classed as functional, cell-based. As to conditions: NCI-H157, 48 h.
The next experiment has as its system BHK-21. In words: Cytotoxicity against BHK21 cells assessed as reduction in cell viability after 48 hrs by SRB assay. The experiment is classed as cell-based. The settings on record: Mesocricetus auratus, BHK-21, 48 h.
In experiment [1] the test system is HepG2. The experiment can be described thus: Antiproliferative activity against human HepG2 cells after 72 hrs by ELISA. The class given is functional, cell-based. As to conditions: HepG2, 72 h.
A further experiment concerns Caco-2. The experiment can be described thus: Antiproliferative activity against human Caco2 cells after 72 hrs by ELISA. The settings on record: Caco-2, 72 h. The class given is functional, cell-based.
The test system of experiment [2] is MCF7. In words: Antiproliferative activity against human MCF7 cells after 72 hrs by ELISA. The class given is functional, cell-based. The settings on record: MCF7, 72 h.
The target in experiment [3] is RAC-alpha serine/threonine-protein kinase (Homo sapiens, UniProt P31749). The experiment can be described thus: Inhibition of AKT phosphorylation in human K562 cells. The class given is cell-based.
RAC-alpha serine/threonine-protein kinase, sequence (P31749 whole entry): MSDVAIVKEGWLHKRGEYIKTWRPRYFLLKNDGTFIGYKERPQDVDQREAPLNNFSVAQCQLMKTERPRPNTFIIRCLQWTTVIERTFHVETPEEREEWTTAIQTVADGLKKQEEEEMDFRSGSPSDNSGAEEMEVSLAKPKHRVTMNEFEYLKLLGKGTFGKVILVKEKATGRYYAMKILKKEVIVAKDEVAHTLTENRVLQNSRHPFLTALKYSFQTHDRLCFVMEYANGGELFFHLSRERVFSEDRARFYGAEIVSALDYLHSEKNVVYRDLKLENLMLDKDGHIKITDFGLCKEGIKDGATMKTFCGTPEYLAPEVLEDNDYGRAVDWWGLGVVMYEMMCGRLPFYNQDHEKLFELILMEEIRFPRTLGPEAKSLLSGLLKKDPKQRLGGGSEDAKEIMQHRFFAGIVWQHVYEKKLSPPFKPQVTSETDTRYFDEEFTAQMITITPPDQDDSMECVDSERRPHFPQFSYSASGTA
Experiment [4] deals with MCF7. In words: Cytotoxicity against human MCF7 cells assessed as reduction in cell viability after 68 hrs by MTT assay. The class given is functional, cell-based. As to conditions: MCF7, 68 h.
Experiment [5] relates to HeLa. The experiment can be described thus: Cytotoxicity against human HeLa cells assessed as reduction in cell viability after 68 hrs by MTT assay. The class given is functional, cell-based.
For another experiment, the system named is K562. The experiment can be described thus: Cytotoxicity against human K562 cells assessed as reduction in cell viability after 68 hrs by MTT assay. As to conditions: K562, 68 h. The experiment is classed as functional, cell-based.
Experiment [6] relates to A549. In words: Cytotoxicity against human A549 cells assessed as reduction in cell viability after 68 hrs by MTT assay. The class given is functional, cell-based. The settings on record: A549, 68 h.
Experiment [7] concerns HepG2. The experiment can be described thus: Cytotoxicity against human HepG2 cells assessed as reduction in cell viability. The experiment is classed as functional, cell-based.
Another experiment has as its system DLD-1. The experiment can be described thus: Cytotoxicity against human DLD1 cells assessed as reduction in cell viability. The class given is functional, cell-based.
In the next experiment the test system is SK-MEL-28. In words: Cytotoxicity against human SK-MEL-28 cells assessed as reduction in cell viability after 24 hrs by MTT assay. The experiment is classed as functional, cell-based. As to conditions: SK-MEL-28, 24 h.
The next experiment concerns BT-20. In words: Cytotoxicity against human BT20 cells assessed as reduction in cell viability after 24 hrs by MTT assay. The experiment is classed as functional, cell-based. The settings on record: BT-20, 24 h.
Another experiment has as its system DU-145. The experiment can be described thus: Cytotoxicity against human DU145 cells assessed as reduction in cell viability after 24 hrs by MTT assay. The experiment is classed as functional, cell-based. The settings on record: DU-145, 24 h.
In experiment [8] the test system is A549. In words: Cytotoxicity against human A549 cells assessed as reduction in cell viability after 24 hrs by MTT assay. The experiment is classed as functional, cell-based. The settings on record: A549, 24 h.
Experiment [9] concerns HeLa. The experiment can be described thus: Antiproliferative activity against human HeLa cells by MTT assay. The experiment is classed as functional, cell-based.

pIC50: −log10 of the molar value. ≈ marks a conversion by molar mass, not a printed value.

In the case of `O=c1oc2ccccc2cc1-c1nnc2n1N=C(c1ccc([N+](=O)[O-])cc1)CS2`, the pIC50 in the experiment on NCI-H157 and with BHK-21 was 5.24 to 6.00 throughout.

As for `C/C(=N\Nc1ccccc1)c1ccc(NS(=O)(=O)c2ccc3oc(=O)ccc3c2)cc1`, the pIC50 is 3.76 to 5.30 with HepG2 [1], 5.07 in the experiment with Caco-2 and 3.76 to 5.30 with MCF7 [2].

For the compound `O=c1oc2ccccc2cc1-c1nnc2n1N=C(c1ccc(F)cc1)CS2`, the negative-log IC50 (pIC50) with NCI-H157 and with BHK-21 was 5.24 to 6.00 in each case.

Take `Cc1c(Cc2ccc(NC(=O)Nc3ccc(F)c(F)c3)nc2)c(=O)oc2cc(O)c(C(C)(C)C)cc12`: the pIC50 in experiment [3] is greater than 5.00; in the experiment with MCF7 [4], 5.10 to 5.78; in the experiment on HeLa [5], 5.10 to 5.78; with K562 it was 5.10 to 5.78; in the experiment with A549 [6] it was 5.10 to 5.78.

As to `C/C(=N\Nc1ccc([N+](=O)[O-])cc1[N+](=O)[O-])c1ccc(NS(=O)(=O)c2ccc3oc(=O)ccc3c2)cc1`, the pIC50 in the experiment on HepG2 [1], in the experiment with Caco-2 and in the experiment on MCF7 [2] was 3.76 to 5.30 each time.

`O=c1oc2ccccc2cc1-c1nnc2n1N=C(c1ccc(Cl)cc1)CS2`: the pIC50 in the experiment with NCI-H157 and with BHK-21 was 5.24 to 6.00 in each case.

Consider `C/C(=N\NC1=NC(=O)CS1)c1ccc(NS(=O)(=O)c2ccc3oc(=O)ccc3c2)cc1`, for which the negative logarithm of the IC50 (pIC50) with HepG2 [1] is 5.30; with Caco-2, 3.76 to 5.30; in the experiment on MCF7 [2], 3.76 to 5.30.

With `O=C(c1cnc(Nc2ccc(F)cc2)s1)c1cc2ccccc2oc1=O`, the IC50 with HepG2 [7] and in the experiment on DLD-1 was 5.66 to 100 µg/mL (≈ 15.4 to 273 µM) in each case.

With `O=C(c1cnc(Nc2ccc(Br)cc2)s1)c1cc2ccccc2oc1=O`, the IC50 with HepG2 [7] and with DLD-1 was 5.66 to 100 µg/mL (≈ 13.2 to 234 µM) throughout.

For the compound `O=c1oc2ccccc2cc1C1=Nn2c(nnc2-c2cc3ccccc3oc2=O)SC1`, the pIC50 with NCI-H157 and in the experiment on BHK-21 was 5.24 to 6.00 throughout.

Regarding `C/C(=N\NC1=NC(=O)C(C)S1)c1ccc(NS(=O)(=O)c2ccc3oc(=O)ccc3c2)cc1` (stereo not drawn), the pIC50 with HepG2 [1], with Caco-2 and in the experiment with MCF7 [2] was 3.76 to 5.30 each time.

On to `CCNc1ncc(C(=O)c2cc3ccccc3oc2=O)s1`, for which the IC50 with HepG2 [7] and in the experiment with DLD-1 was 5.66 to 100 µg/mL (≈ 18.8 to 333 µM) throughout.

In the case of `O=C(Cn1nc(Cc2ccc(Cl)cc2)[nH]c1=O)NNC(=O)c1cc2cc(Cl)cc(Cl)c2oc1=O`, the IC50 in the experiment on SK-MEL-28, in the experiment on BT-20, in the experiment with DU-145 and with A549 [8] was 3.1 to 37.9 µg/mL (≈ 5.93 to 72.5 µM) throughout.

Consider `Cc1ccc(C2=Nn3c(nnc3-c3cc4ccccc4oc3=O)SC2)cc1`, for which the pIC50 with NCI-H157 and with BHK-21 was 5.24 to 6.00 throughout.

`CCOC(=O)c1sc(N/N=C(\C)c2cc3cc(Cl)ccc3oc2=O)nc1C` showed a pIC50 in the experiment with HeLa [9] of 6.24 to 8.04.

Turning to `C/C(=N\Nc1nc(C)c(-c2ccccc2)s1)c1ccc(NS(=O)(=O)c2ccc3oc(=O)ccc3c2)cc1`, the pIC50 in the experiment on HepG2 [1] was 5.46; in the experiment on Caco-2, 3.76 to 5.30; in the experiment on MCF7 [2] it was 3.76 to 5.30.

In the experiment with HeLa [9], `COC(=O)c1sc(N/N=C(\C)c2cc3cc(Cl)ccc3oc2=O)nc1C` had a pIC50 of 6.24 to 8.04.

For the compound `Cc1ccc(NC(=O)Nc2ccc(Cc3c(C)c4cc(C(C)(C)C)c(O)cc4oc3=O)cn2)cc1`, the pIC50 in experiment [3] was greater than 5.00; in the experiment with MCF7 [4] it was 5.03 to 5.78; in the experiment with HeLa [5], 5.03 to 5.78; in the experiment with K562, 5.03 to 5.78; with A549 [6], 5.03 to 5.78.

With `O=C(Cn1nc(Cc2ccc(Cl)c(Cl)c2)[nH]c1=O)NNC(=O)c1cc2cc(Cl)ccc2oc1=O`, the IC50 in the experiment on SK-MEL-28, in the experiment on BT-20, with DU-145 and in the experiment with A549 [8] was 3.1 to 37.9 µg/mL (≈ 5.93 to 72.5 µM) in each case.

With `O=c1oc2ccccc2cc1-c1nnc2n1N=C(c1ccc(Cl)c(Cl)c1)CS2`, the pIC50 in the experiment on NCI-H157 was 5.76; in the experiment on BHK-21, 5.86.

Regarding `Cc1c(Cc2ccc(NC(=O)Nc3ccc(Br)cc3)nc2)c(=O)oc2cc(O)c(C(C)(C)C)cc12`, the pIC50 in experiment [3] is greater than 5.00; with MCF7 [4] it was 5.03 to 5.78; with HeLa [5] it was 5.03 to 5.78; with K562, 5.03 to 5.78; with A549 [6], 5.03 to 5.78.

Consider `COc1ccc(/C(C)=N/Nc2ncc(C(=O)c3cc4ccccc4oc3=O)s2)cc1`, for which the concentration for a half-maximal effect (EC50) in the experiment on HepG2 [7] and in the experiment with DLD-1 was 3.7 to 9.54 µg/mL (≈ 8.82 to 22.7 µM) in each case.

On to `C/C(=N\Nc1c(Cl)cc(Cl)cc1Cl)c1ccc(NS(=O)(=O)c2ccc3oc(=O)ccc3c2)cc1`, for which the pIC50 in the experiment with HepG2 [1], with Caco-2 and in the experiment on MCF7 [2] was 3.76 to 5.30 in each case.

(Values after ChEMBL document CHEMBL4373717, “Coumarin-containing hybrids and their anticancer activities” (Eur J Med Chem, 2019).)
